According to patent EP0404945A1 (priority 1989, dated 1990):
Like-named read-outs stand apart in the source and are kept apart here.

Experiments:
houseflies = details: house fly, in vivo
[1] = in vivo; cited from earlier work
Colibacillus = experiment: microbe, parasite or virus in culture; type: cell-based; details: read-out: Efficiency of the preparation, % Colibacillus
Staphylococcus aureus = experiment: microbe, parasite or virus in culture; type: cell-based; details: read-out: Efficiency of the preparation, % Staphylococcus aureus
Virus of hepatitis B = experiment: microbe, parasite or virus in culture; details: 0.5 h, read-out: Death of viruses (%) at 30 minutes exposure, Virus of hepatitis B
[2] = test system: Infectant of poliomyelitis
ascarid ovi = experiment: animal or person; type: in vivo, pig.ascarid; details: read-out: Death of ascarid ovi, % Tests laboratory
Alternaria radicina = type: cell-based
Aspergillus niger = type: cell-based
Fusarium oxysporum = type: cell-based
Helminthosporum saturem = type: cell-based
Venturia inaequalis = type: cell-based
Penicillium sporum = type: cell-based
Candida albicans = experiment: microbe, parasite or virus in culture; type: cell-based
Candida tropicalis = experiment: microbe, parasite or virus in culture; type: cell-based

COP(=O)(OC)C(O)C(Cl)(Cl)Cl (stereo not shown) [Known insecticidal preparation, O,O-Dimethyl-(1-hydroxy-2,2,2-tri-chloroethyl)-phosphonate]
Death of flies, % Tests laboratory (houseflies): 90% | Death of flies, % after 48 hours (houseflies; 48 h): 81% | Death of flies, % after 72 hours (houseflies; 72 h): 84% | LD50 [1]: 225 - 1,200 mg/kg

O=[N+]([O-])c1ccc(C(Cl)C(CCl)NP(=O)(O)O)cc1 (stereo not shown) [Example 3]
killing at 0.5 % (Colibacillus): 100% | killing at 0.5 % (Staphylococcus aureus): 100% | killing at 1 % (Virus of hepatitis B): 100% | Death of viruses (%) at 60 minutes exposure, Infectant of poliomyelitis [2]: 80% | killing at 3 % (ascarid ovi): 100% | Mycelium growth inhibition, % to the control, Alternaria radicina (Alternaria radicina): 80% | Mycelium growth inhibition, % to the control, Aspergillus niger (Aspergillus niger): 100% | Mycelium growth inhibition, % to the control, Fusarium oxisporum (Fusarium oxysporum): 68% | Mycelium growth inhibition, % to the control, Helminthosporum saturem (Helminthosporum saturem): 100% | Mycelium growth inhibition, % to the control, Venturia inaequalis (Venturia inaequalis): 98% | Mycelium growth inhibition, % to the control, Penicillium sporum (Penicillium sporum): 100% | killing at 0.05 % (Candida albicans; 2 h, read-out: Death of test fungi, % to the control, Candida albicans 2 hrs): 100% | killing at 0.05 % (Candida albicans; 20 h, read-out: Death of test fungi, % to the control, Candida albicans 20 hrs): 100% | killing at 0.05 % (Candida tropicalis; 2 h, read-out: Death of test fungi, % to the control, Candida tropicalis 2 hrs): 99% | killing at 0.05 % (Candida tropicalis; 20 h, read-out: Death of test fungi, % to the control, Candida tropicalis 20 hrs): 100%
